Reference: ChEMBL document CHEMBL5576042, “Fungal Depsidones Stimulate AKT-Dependent Glucose Uptake in 3T3-L1 Adipocytes” (J Nat Prod, 2024)
Active and inactive are the calls of the source. The calls are words filed in the database; no cut-off is given here.

Assays:
[1] = tested on: 3T3-L1; assay: Induction of glucose uptake in mouse 3T3-L1 cells assessed as increase in glucose uptake at 2.3 uM incubated for 16 hrs in presence of 2-[3H]-deoxyglucose by microbeta analysis; type: functional
[2] = tested on: 3T3-L1; assay: Induction of glucose uptake in mouse 3T3-L1 cells assessed as increase in glucose uptake at 3.1 uM incubated for 16 hrs in presence of 2-[3H]-deoxyglucose by microbeta analysis; type: functional
[3] = tested on: 3T3-L1; assay: Induction of glucose uptake in insulin resistant-mouse 3T3-L1 cells assessed as fold increase in glucose uptake at 11 uM incubated for 16 hrs in presence of 2-[3H]-deoxyglucose and insulin; type: functional
[4] = tested on: 3T3-L1; assay: Induction of glucose uptake in insulin resistant-mouse 3T3-L1 cells assessed as fold increase in glucose uptake at 11 uM incubated for 16 hrs in presence of 2-[3H]-deoxyglucose; type: functional
[5] = Upregulation of AMPK expression in mouse 3T3-L1 cells assessed as fold change at 11 uM measured at 1 hr by Western blot analysis; type: functional
[6] = tested on: 3T3-L1; assay: Induction of glucose uptake in mouse 3T3-L1 cells assessed as increase in glucose uptake at 11 uM incubated for 16 hrs in presence of 0.1 uM wortmannin; type: functional, cell-based
[7] = Upregulation of AMPK expression in mouse 3T3-L1 cells assessed as fold change at 11 uM measured at 6 hrs by Western blot analysis; type: functional
[8] = tested on: 3T3-L1; assay: Induction of glucose uptake in insulin-stimulated mouse 3T3-L1 cells assessed as increase in glucose uptake at 100 nM incubated for 16 hrs presence 2-[3H]-deoxyglucose by microbeta analysis; type: functional, cell-based
[9] = tested on: 3T3-L1; assay: Induction of glucose uptake in mouse 3T3-L1 cells assessed as increase in glucose uptake by measuring fold change at 11 uM incubated for 6 hrs in presence of 0.1 uM wortmannin; type: functional
[10] = target: T1, Solute carrier family 2, facilitated glucose transporter member 4 (Mus musculus) (UniProt P14142); assay: Induction of GLUT4 translocation in mouse 3T3-L1 cells membrane by Western blot analysis; type: cell membranes
T1 sequence (whole entry): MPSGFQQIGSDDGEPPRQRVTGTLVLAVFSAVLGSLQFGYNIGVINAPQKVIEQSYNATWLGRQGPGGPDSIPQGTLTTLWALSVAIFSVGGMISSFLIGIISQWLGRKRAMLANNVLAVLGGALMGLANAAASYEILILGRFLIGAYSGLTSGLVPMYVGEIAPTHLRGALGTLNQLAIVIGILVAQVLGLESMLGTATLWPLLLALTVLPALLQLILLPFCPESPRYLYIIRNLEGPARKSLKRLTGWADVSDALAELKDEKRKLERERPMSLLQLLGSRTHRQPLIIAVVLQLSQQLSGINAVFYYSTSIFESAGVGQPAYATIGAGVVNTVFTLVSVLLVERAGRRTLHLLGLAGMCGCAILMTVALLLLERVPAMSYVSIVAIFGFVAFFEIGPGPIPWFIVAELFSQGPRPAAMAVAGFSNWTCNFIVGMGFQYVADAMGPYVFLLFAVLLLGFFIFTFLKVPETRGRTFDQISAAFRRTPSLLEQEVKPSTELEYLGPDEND

[11] = tested on: 3T3-L1; assay: Induction of glucose uptake in mouse 3T3-L1 cells assessed as increase in glucose uptake by measuring fold change at 11 uM incubated for 6 hrs in presence of 0.25 uM wortmannin; type: functional
[12] = tested on: 3T3-L1; assay: Induction of glucose uptake in mouse 3T3-L1 cells assessed as increase in glucose uptake at 11 uM incubated for 6 hrs in presence of 0.5 uM wortmannin; type: functional
[13] = target: T1, Solute carrier family 2, facilitated glucose transporter member 4 (Mus musculus); assay: Induction of GLUT4 translocation in mouse 3T3-L1 cells Cytosol by Western blot analysis; type: subcellular
[14] = Effect on NONO mRNA expression in mouse 3T3-L1 cells assessed as fold change at 11 uM incubated for 6 hrs by real time qPCR analysis; type: functional
[15] = tested on: 3T3-L1; assay: Effect on GLUT4 mRNA expression in mouse 3T3-L1 cells at 11 uM incubated for 6 hrs by real time qPCR analysis; type: functional, cell-based
[16] = tested on: 3T3-L1; assay: Induction of glucose uptake in mouse 3T3-L1 cells assessed as increase in glucose uptake by measuring fold change at 11 uM incubated for 6 hrs in presence of 0.5 uM wortmannin; type: functional
[17] = tested on: 3T3-L1; assay: Induction of glucose uptake in mouse 3T3-L1 cells assessed as increase in glucose uptake at 11.27 uM in presence 2-[3H]-deoxyglucose by microbeta analysis; type: functional, cell-based; conditions: time 3-16 hrs, TDE = time-dependent effect
[18] = Effect on ACTbeta mRNA expression in mouse 3T3-L1 cells assessed as fold change at 11 uM incubated for 6 hrs by real time qPCR analysis; type: functional
[19] = tested on: 3T3-L1; assay: Induction of AKT phosphorylation at ser473 residue in mouse 3T3-L1 cells measured up to 6 hrs by Western blot analysis; type: cell-based; conditions: filed as activator
[20] = target: T1, Solute carrier family 2, facilitated glucose transporter member 4 (Mus musculus); assay: Induction of GLUT4 translocation in mouse 3T3-L1 cells membrane assessed as fold increase in Na+/K+ ATPase level by Western blot analysis; type: cell membranes
[21] = tested on: 3T3-L1; assay: Induction of AKT phosphorylation at ser473 residue in mouse 3T3-L1 cells assessed as fold change at 11 uM measured at 1 hr by Western blot analysis; type: cell-based; conditions: filed as activator
[22] = tested on: 3T3-L1; assay: Induction of glucose uptake in mouse 3T3-L1 cells assessed as increase in glucose uptake at 11 uM incubated for 16 hrs in presence of 0.1 uM dorsomorphin; type: functional, cell-based
[23] = tested on: 3T3-L1; assay: Induction of AKT phosphorylation at ser473 residue in insulin-resistant mouse 3T3-L1 cells assessed as fold change in presence of insulin; type: cell-based; conditions: filed as activator
[24] = target: T2, Solute carrier family 2, facilitated glucose transporter member 1 (Mus musculus) (UniProt P17809); assay: Induction of GLUT1 translocation in mouse 3T3-L1 cells Cytosol by Western blot analysis; type: subcellular
T2 sequence (whole entry): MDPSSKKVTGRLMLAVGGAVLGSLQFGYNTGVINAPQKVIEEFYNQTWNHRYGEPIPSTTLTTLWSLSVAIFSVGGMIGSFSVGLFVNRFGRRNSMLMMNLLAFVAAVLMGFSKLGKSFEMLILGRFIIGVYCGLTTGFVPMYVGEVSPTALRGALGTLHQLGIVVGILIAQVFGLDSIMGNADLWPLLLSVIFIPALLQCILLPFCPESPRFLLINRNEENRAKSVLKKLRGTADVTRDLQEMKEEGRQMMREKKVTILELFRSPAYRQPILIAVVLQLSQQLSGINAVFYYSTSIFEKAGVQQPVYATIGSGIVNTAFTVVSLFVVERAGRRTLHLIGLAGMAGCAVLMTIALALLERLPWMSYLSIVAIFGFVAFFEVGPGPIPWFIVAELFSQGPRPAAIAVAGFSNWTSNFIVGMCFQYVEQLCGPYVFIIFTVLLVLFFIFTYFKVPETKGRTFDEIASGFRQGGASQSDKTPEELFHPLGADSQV

[25] = Effect on GLUT4 protein level in mouse 3T3-L1 cells assessed as fold change at 11 uM incubated for 16 hrs; type: functional
[26] = target: T2, Solute carrier family 2, facilitated glucose transporter member 1 (Mus musculus); assay: Induction of GLUT1 translocation in mouse 3T3-L1 cells membrane assessed as fold increase in Na+/K+ ATPase level by Western blot analysis; type: cell membranes
[27] = tested on: 3T3-L1; assay: Cytotoxicity against mouse 3T3-L1 cells assessed as reduction in cell viability at 45 to 68 uM incubated for 18 hrs; type: toxicity, cell-based; conditions: 3t3-l1, 18 h, dose 45-68 µM
[28] = tested on: 3T3-L1; assay: Induction of glucose uptake in insulin-stimulated mouse 3T3-L1 cells assessed as increase in glucose uptake at 11 uM incubated for 16 hrs presence 2-[3H]-deoxyglucose by microbeta analysis; type: functional
[29] = tested on: 3T3-L1; assay: Induction of glucose uptake in metformin-stimulated mouse 3T3-L1 cells assessed as increase in glucose uptake at 11 uM incubated for 16 hrs presence 2-[3H]-deoxyglucose by microbeta analysis; type: functional
[30] = tested on: 3T3-L1; assay: Induction of glucose uptake in mouse 3T3-L1 cells assessed as increase in glucose uptake at 11 uM incubated for 16 hrs in presence of wortmannin; type: functional, cell-based
[31] = tested on: 3T3-L1; assay: Induction of glucose uptake in mouse 3T3-L1 cells assessed as increase in glucose uptake incubated for 16 hrs in presence 2-[3H]-deoxyglucose by microbeta analysis; type: functional, cell-based; conditions: dose 2.8-11 µM
[32] = tested on: 3T3-L1; assay: Induction of AKT phosphorylation at ser473 residue in insulin-resistant mouse 3T3-L1 cells in presence of insulin; type: cell-based; conditions: filed as activator
[33] = tested on: 3T3-L1; assay: Induction of AKT phosphorylation at ser473 residue in mouse 3T3-L1 cells assessed as fold change at 11 uM measured at 6 hrs by Western blot analysis; type: cell-based; conditions: filed as activator

**Q.** For C/C=C(\C)c1c(Cl)c(O)c(C)c2c1Oc1c(Cl)c(O)c(Cl)c(C)c1C(=O)O2, which Activity [1] is on record?
**A.** 121%

**Q.** With C/C=C(\C)c1cc(O)c(C)c2c1Oc1cc(O)cc(C)c1C(=O)O2 as the compound, how does the Activity [2] read?
**A.** 124%

**Q.** With C/C=C(\C)c1c(Cl)c(OC)c(C)c2c1Oc1c(Cl)c(O)c(Cl)c(C)c1C(=O)O2 as the compound, how does the “fold change (FC)” value [3] read?
**A.** 2.7

**Q.** And the “fold change (FC)” value [4]?
**A.** 2.4

**Q.** And the “fold change (FC)” value [5]?
**A.** 3.7

**Q.** And the Activity [6]?
**A.** inactive

**Q.** And the “fold change (FC)” value [7]?
**A.** 3.8

**Q.** What about the Activity [8] of the same compound?
**A.** Active

**Q.** What about the Activity [1] of the same compound?
**A.** 141%

**Q.** And the “fold change (FC)” value [9]?
**A.** 1.5

**Q.** What about the Activity [10] of the same compound?
**A.** Active

**Q.** What about the “fold change (FC)” value [11] of the same compound?
**A.** 1.4

**Q.** What about the Activity [12] of the same compound?
**A.** 20%

**Q.** And the Activity [13]?
**A.** Active

**Q.** What about the “fold change (FC)” value [14] of the same compound?
**A.** 2.07

**Q.** And the Activity [15]?
**A.** Active

**Q.** And the “fold change (FC)” value [16]?
**A.** 1.2

**Q.** What about the Activity [17] of the same compound?
**A.** Tde

**Q.** And the “fold change (FC)” value [18]?
**A.** 1.92

**Q.** What about the Activity [19] of the same compound?
**A.** Active

**Q.** And the fold change (FC) [20]?
**A.** 1.7

**Q.** What about the fold change (FC) [21] of the same compound?
**A.** 2.4

**Q.** And the Activity [22]?
**A.** inactive

**Q.** What about the fold change (FC) [23] of the same compound?
**A.** 2.1

**Q.** And the Activity [24]?
**A.** Active

**Q.** And the “fold change (FC)” value [25]?
**A.** 1.67

**Q.** And the fold change (FC) [26]?
**A.** 1.6

**Q.** And the Activity [27]?
**A.** Non-Toxic

**Q.** What about the Activity [28] of the same compound?
**A.** 276%

**Q.** And the Activity [29]?
**A.** 252%

**Q.** And the Activity [30]?
**A.** inactive

**Q.** What about the Activity [31] of the same compound?
**A.** Dose-Dependent Effect

**Q.** What about the Activity [32] of the same compound?
**A.** Active

**Q.** What about the fold change (FC) [33] of the same compound?
**A.** 19
